Results on three molecules are retold here after US10870647B2, “Imidazopyridine derivative, method for preparing same, and pharmaceutical composition containing same as active ingredient for preventing or treating cancer” (DAEGU-GYEONGBUK MEDICAL INNOVATION FOUNDATION, priority 2016, dated 2020).

What all share (test): Kinase selectivity, scanMAX Kinase assay panel (DiscoverX), % control at 1 uM
Holding throughout (assay type): binding

Experiment [1] concerns the target T1, scanMAX Kinase assay panel (Homo sapiens, UniProt O43318).
T1 construct: purchased DiscoverX
T1 sequence (O43318 1-606): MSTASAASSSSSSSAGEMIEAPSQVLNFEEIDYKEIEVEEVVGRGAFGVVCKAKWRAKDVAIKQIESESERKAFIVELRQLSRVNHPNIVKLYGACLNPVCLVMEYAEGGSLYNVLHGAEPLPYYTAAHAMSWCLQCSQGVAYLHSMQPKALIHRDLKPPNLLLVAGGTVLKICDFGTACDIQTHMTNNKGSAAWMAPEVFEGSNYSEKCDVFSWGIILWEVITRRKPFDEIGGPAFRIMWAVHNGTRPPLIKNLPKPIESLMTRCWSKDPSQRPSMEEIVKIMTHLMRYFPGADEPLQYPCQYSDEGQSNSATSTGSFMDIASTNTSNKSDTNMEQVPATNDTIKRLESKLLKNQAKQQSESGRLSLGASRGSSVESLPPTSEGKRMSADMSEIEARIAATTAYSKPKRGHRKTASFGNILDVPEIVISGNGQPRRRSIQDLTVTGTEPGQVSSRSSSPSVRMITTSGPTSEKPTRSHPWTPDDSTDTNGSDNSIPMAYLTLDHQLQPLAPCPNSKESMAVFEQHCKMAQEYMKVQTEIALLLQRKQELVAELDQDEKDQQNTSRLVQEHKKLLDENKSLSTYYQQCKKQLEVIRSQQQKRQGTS
The settings on record: TAK1; 1 uM; read-out: Percent Control (%). The method in brief:
(§1)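 1 uM cpd (DMSO) per kinase; % ctrl = [cpd − pos ctrl]/[neg ctrl − pos ctrl] × 100; hit if <35.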

Experiment [2] deals with T2, scanMAX Kinase assay panel (Homo sapiens, UniProt P42336, E542K).
T2 construct: purchased DiscoverX
T2 sequence (P42336 whole entry E542K): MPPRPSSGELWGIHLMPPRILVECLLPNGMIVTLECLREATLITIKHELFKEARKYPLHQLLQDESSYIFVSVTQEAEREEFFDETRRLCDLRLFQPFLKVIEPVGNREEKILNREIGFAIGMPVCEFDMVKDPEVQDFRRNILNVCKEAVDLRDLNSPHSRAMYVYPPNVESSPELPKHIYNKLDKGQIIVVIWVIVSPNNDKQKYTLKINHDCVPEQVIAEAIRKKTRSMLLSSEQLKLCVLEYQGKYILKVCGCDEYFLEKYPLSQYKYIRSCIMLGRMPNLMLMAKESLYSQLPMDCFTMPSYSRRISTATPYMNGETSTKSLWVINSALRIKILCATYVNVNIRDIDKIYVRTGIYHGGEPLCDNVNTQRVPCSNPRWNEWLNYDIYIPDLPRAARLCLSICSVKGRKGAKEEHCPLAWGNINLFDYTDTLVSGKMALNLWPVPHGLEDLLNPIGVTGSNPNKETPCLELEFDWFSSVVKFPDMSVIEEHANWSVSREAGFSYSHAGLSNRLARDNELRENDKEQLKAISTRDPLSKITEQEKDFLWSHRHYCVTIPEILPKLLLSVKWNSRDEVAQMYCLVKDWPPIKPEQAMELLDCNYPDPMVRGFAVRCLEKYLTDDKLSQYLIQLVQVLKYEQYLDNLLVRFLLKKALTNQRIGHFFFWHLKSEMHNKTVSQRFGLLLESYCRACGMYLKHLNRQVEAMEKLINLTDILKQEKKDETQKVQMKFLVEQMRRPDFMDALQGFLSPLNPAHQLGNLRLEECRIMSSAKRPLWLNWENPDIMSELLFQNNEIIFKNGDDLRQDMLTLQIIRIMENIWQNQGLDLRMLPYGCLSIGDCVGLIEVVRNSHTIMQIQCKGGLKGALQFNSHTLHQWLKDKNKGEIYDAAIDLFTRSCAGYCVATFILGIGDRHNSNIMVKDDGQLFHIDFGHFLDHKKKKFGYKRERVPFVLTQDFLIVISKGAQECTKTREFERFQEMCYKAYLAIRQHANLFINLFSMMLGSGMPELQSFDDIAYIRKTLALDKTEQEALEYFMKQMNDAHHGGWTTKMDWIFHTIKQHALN
The settings on record: PIK3CA (E542K); 1 uM; read-out: Percent Control (%). The method in brief:
as §1

The target of experiment [3] is T3, scanMAX Kinase assay panel (Homo sapiens, UniProt Q7KZI7).
T3 construct: purchased DiscoverX
T3 sequence (Q7KZI7 whole entry): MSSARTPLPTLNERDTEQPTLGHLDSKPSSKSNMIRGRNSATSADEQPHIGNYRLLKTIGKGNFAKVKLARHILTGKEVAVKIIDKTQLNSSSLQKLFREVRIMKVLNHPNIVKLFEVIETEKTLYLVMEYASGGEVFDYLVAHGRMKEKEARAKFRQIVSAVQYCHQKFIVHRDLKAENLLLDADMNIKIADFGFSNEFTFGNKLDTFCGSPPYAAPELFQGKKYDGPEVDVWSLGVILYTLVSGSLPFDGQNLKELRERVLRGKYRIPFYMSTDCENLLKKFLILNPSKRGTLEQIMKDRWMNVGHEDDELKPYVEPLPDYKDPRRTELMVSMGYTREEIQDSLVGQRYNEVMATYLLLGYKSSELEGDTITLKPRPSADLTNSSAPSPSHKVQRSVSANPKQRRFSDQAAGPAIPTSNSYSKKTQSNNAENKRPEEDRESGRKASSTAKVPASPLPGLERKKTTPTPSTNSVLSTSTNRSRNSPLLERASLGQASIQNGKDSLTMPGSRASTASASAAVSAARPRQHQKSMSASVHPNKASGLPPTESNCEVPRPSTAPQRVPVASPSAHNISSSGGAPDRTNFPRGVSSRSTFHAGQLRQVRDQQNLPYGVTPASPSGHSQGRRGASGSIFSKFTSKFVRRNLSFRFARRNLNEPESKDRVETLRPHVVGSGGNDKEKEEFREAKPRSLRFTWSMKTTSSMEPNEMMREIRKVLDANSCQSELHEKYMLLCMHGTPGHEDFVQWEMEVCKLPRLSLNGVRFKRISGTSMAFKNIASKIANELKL
The settings on record: MARK2; 1 uM; read-out: Percent Control (%). The essentials: as §1

In experiment [4] the target is T4, scanMAX Kinase assay panel (Homo sapiens, UniProt Q8TD19).
T4 construct: purchased DiscoverX
T4 sequence (Q8TD19 1-979): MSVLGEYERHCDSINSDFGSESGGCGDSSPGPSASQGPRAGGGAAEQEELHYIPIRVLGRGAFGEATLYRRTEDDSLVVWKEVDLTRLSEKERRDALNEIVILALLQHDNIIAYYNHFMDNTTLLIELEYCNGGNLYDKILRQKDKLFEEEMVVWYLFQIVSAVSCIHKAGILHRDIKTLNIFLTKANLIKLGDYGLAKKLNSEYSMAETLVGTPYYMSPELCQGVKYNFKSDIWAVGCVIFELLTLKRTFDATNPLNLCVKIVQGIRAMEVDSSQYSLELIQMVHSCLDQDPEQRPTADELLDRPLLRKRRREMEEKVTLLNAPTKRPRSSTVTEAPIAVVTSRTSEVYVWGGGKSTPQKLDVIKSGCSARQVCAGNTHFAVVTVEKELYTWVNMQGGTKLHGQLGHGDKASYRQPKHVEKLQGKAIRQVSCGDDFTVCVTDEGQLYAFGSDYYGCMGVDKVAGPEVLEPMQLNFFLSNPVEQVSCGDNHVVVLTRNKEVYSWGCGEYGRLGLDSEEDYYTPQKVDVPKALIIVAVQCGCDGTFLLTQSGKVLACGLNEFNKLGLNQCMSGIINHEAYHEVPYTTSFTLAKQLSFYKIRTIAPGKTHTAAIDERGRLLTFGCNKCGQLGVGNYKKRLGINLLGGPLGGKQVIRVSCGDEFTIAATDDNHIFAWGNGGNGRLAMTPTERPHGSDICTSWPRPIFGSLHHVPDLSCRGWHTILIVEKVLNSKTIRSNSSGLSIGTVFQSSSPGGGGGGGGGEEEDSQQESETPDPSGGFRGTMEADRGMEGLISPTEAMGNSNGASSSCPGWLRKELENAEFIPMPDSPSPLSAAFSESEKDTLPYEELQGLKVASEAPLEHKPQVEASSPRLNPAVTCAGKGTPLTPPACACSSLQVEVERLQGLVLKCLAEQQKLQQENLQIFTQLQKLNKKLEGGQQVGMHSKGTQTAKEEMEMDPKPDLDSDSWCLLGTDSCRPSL
The following applies: NEK9; 1 uM; read-out: Percent Control (%). The essentials:
as §1

Experiment [5] deals with T5, scanMAX Kinase assay panel (Homo sapiens, UniProt Q99759).
T5 construct: purchased DiscoverX
T5 sequence (Q99759 1-626): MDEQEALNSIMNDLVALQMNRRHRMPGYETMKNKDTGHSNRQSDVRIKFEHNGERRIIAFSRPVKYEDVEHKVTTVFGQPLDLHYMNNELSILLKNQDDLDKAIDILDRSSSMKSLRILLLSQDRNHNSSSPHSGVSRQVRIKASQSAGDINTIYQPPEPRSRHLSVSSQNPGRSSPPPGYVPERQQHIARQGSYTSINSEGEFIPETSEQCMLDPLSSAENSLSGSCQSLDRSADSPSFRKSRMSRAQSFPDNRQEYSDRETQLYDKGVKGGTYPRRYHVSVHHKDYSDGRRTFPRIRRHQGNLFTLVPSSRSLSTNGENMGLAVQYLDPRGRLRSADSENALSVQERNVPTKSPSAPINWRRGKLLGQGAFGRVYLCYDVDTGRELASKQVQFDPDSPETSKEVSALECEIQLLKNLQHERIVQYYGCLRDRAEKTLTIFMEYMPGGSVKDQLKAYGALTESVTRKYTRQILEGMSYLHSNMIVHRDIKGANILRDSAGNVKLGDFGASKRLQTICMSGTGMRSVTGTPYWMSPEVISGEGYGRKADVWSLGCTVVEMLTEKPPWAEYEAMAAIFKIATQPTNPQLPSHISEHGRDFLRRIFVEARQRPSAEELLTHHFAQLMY
The following applies: MAP3K3; 1 uM; read-out: Percent Control (%). The essentials: as §1

In the case of `Cc1ccc(C(=O)Nc2ccc(CN3CCN(C)CC3)c(C(F)(F)F)c2)cc1C#Cc1cnc2c(Nc3cnn(C)c3)cccn12` [Example 1, 4-methyl-3-((8-((1-methyl-1H-pyrazol-4-yl)amino)imidazo[1,2-a]pyridin-3-yl)ethynyl)-N-(4-((4-methylpiperazin-1-yl)methyl)-3-(trifluoromethyl)phenyl)benzamide], the remaining binding at 1 µM in experiment [1] turned out to be 0%; in experiment [2], 100%; in experiment [3] it was 73%; in experiment [4] it was 6%; in experiment [5], 0%.
With `Cc1cn(-c2cc(NC(=O)c3ccc(C)c(C#Cc4cnc5c(Nc6cnn(C)c6)cccn45)c3)cc(C(F)(F)F)c2)cn1` [Example 12, 4-methyl-N-(3-(4-methyl-1H-imidazol-1-yl)-5-(trifluoromethyl)phenyl)-3-((8-((1-methyl-1H-pyrazol-4-yl)amino)imidazo[1,2-a]pyridin-3-yl)ethynyl)benzamide], the remaining binding at 1 µM in experiment [1] was found to be 14%; in experiment [2], 100%; in experiment [3], 99%; in experiment [4], 86%; in experiment [5], 33%.
The matching figures for `Cc1ccc(NC(=O)C2(C(=O)Nc3ccc(F)cc3)CC2)cc1C#Cc1cnc2c(Nc3cnn(C(C)C)c3)cccn12` [Example 78]: 76%, 100%, 89%, 100% and 77%.
